Test [1] has as its target α1-adrenoceptors. The experiment in a line: inhibition of 7-methoxy-[3H]prazosin binding to α1-adrenoceptors in vitro. Details: species or system rat (male Charles River CD, whole cortical tissue). The following applies: rat whole cortex, 30 min; for Ki: 7-methoxy-[3H]prazosin 0.1 nM, 30° C. The method, then: Whole cortical tissue from the brains of male Charles River CD rats weighing between 150-250 g were homogenised in ice-cold 50 mM Tris-HCl, pH 7.6 (at 25° C.; 1:40 w/v) and centrifuged at 1000 g at 4° C. for 10 minutes. The supernatant was centrifuged at 30,000 g at 4° C. for 10 minutes. The pellet was rehomogenised in 50 mM Tris-HCl, pH 7.6 (1:40 w/v) and centrifuged at 30,000 g at 4° C. for 10 minutes. The final pellet was resuspended in 50 mM Tris-HCl, pH 7.6 (equivalent to 12.5 mg wet weight of tissue/ml) and used immediately in the binding assay. Aliquots (400 μl; equivalent to 5 mg wet weight of tissue/tube) of this suspension were added to tubes containing the ligand (50 μl; 0.1 nM) and distilled water (50 μl; total binding) or phentolamine (50 μl; 5 μM; non-specific binding) or test compound (50 μl; at a single concentration of 10^-6 M or at 10 concentrations ranging from 10^-11 -10^-3 M). The ligand was 7-methoxy-[^3 H]prazosin and the mixture was incubated at 30° C. for 30 minutes before the incubation was terminated by rapid filtration. The filters were washed with ice-cold Tris-HCl buffer and dried. The filters were punched out into vials, scintillation fluid added and radioactivity determined by liquid scintillation counting. The percentage displacement of specific binding of the tritiated ligand was calculated for the single concentration (10^-6 M) of test compound. […] The concentration which gave 50% inhibition of specific binding (IC50) was obtained from the curve. The inhibition coefficient Ki was then calculated using the formula [formula] in which [ligand] is the concentration of the tritiated ligand used and KD is the equilibrium dissociation constant for the ligand.

Test [2] concerns the target D2 dopamine receptors (Rattus norvegicus, UniProt P61169). The experiment in a line: inhibition of tritiated (S)-sulpiride binding to D2 dopamine receptors in vitro. The following applies: rat striatum, tritiated (S)-sulpiride 1 nM, 4° C., 40 min. Details: species or system rat (male Charles River CD, striatal tissue).
Test [3] has as its target T1, 5-HT1A receptors (Rattus norvegicus, UniProt P19327).
T1 sequence (P19327 1-422): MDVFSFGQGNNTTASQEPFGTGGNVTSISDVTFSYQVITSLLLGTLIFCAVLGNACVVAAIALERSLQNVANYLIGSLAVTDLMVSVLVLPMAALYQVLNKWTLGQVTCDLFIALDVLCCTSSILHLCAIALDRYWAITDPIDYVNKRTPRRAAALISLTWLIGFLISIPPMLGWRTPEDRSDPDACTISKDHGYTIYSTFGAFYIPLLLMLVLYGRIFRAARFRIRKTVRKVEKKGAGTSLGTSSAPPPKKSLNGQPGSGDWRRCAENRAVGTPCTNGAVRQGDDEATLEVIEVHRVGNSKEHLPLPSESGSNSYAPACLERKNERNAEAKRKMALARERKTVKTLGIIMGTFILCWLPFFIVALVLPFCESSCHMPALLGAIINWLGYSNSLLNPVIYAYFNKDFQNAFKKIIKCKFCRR
The test is described as follows: inhibition of [3H]8-OH-DPAT binding to 5-HT1A receptors in vitro. Also on record: species or system rat (male Sprague-Dawley, hippocampal tissue). The conditions noted are these: rat hippocampus, [3H]8-OH-DPAT 2 nM, 25° C., 30 min.

The target of test [4] is T2, α2D-adrenoceptors (Rattus norvegicus, UniProt P22909).
T2 sequence (P22909 1-465): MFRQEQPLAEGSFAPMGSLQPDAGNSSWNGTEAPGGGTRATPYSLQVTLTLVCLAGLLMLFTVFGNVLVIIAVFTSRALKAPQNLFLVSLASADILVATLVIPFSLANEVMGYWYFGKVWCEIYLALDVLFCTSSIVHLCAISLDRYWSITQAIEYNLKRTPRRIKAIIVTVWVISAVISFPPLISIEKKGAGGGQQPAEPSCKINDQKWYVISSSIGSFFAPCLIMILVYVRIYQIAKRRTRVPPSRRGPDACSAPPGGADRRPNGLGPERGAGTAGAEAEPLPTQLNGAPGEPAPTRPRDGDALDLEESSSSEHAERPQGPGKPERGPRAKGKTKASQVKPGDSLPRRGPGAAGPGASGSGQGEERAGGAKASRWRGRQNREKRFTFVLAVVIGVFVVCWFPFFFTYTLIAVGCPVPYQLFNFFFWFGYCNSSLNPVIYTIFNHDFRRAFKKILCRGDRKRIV
The test is described as follows: inhibition of tritiated idazoxan binding to α2D-adrenoceptors in vitro. Details: species or system rat (male Charles River CD, frontal cortical tissue). The following applies: rat frontal cortex; for Ki: [3H]idazoxan 1 nM, 0° C., 75 min.

The target in test [5] is T3, α2A-adrenoceptors (Homo sapiens, UniProt P08913).
T3 construct: Human cerebral cortex obtained at post-mortem; from tissue; host or cells: human cerebral cortex, post-mortem
T3 sequence (P08913 1-465): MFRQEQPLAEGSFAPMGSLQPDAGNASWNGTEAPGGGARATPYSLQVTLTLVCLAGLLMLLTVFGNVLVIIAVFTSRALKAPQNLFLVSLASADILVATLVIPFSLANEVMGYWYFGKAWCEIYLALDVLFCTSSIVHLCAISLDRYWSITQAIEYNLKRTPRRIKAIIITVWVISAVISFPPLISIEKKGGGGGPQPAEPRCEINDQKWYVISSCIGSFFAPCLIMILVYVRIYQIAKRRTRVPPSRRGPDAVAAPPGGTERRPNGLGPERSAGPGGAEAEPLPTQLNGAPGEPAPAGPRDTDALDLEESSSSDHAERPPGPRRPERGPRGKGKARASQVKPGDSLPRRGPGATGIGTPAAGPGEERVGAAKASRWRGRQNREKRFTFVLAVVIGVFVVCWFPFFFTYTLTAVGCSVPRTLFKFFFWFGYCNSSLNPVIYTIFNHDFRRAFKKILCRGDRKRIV
The experiment in a line: inhibition of tritiated RX 821002 binding to α2A-adrenoceptors in vitro. Also on record: species or system human (cerebral cortex post-mortem). The conditions noted are these: human cerebral cortex; for Ki: [3H]RX 821002 0.2 nM, 0° C., 75 min; for inhibition at 1 µM: 10^-6 M, [3H]RX 821002, read-out: % displacement at 10^-6 M, α2A. The procedure:
Human cerebral cortex obtained at post-mortem was homogenised in ice-cold 0.25M sucrose (1:30 w/v) and centrifuged at 1,000 g at 4° C. for 12 minutes. The supernatant was stored on ice and the pellet was rehomogenised in 0.25M sucrose (1:15 w/v) and centrifuged at 850 g at 4° C. for 12 minutes. Combined supernatants were diluted with 5 mM Tris-HCl (pH 7.5) containing 5 mM ethylenediamine tetraacetic acid (EDTA), readjusted to pH 7.5 (at 25° C.) with 1M sodium hydroxide to 1:80 w/v, and centrifuged at 11,000 g at 4° C. for 10 minutes. The resulting pellet was resuspended in 50 mM Tris-HCl (pH 7.5) containing 5.68 mM L-ascorbic acid and 0.5 mM EDTA, readjusted to pH 7.5 (at 25° C.) with 1M sodium hydroxide to 1:80 w/v, and centrifuged at 11,000 g for 10 minutes. The pellet was stored at -80° C. On the day of the assay the pellet was thawed, resuspended in 50 mM Tris-HCl (pH 7.5) containing 5.68 mM L-ascorbic acid and 5 mM EDTA to 1:80 w/v and centrifuged at 11,000 g for 10 minutes. The final pellet was resuspended in 50 mM Tris-HCl (pH 7.5) containing 5.68 mM L-ascorbic acid and 5 mM EDTA (equivalent to 25 mg wet weight of tissue/ml).
Aliquots (400 μl; equivalent to 10 mg wet weight of tissue/tube) of this suspension were added to tubes containing the ligand (50 μl; 0.2 nM) and distilled water (50 μl; total binding) or phentolamine (50 μl; 50 μM; non-specific binding) or test compound (50 μl; at a single concentration of 10^-6 M or at 10 concentrations ranging from 10^-11 -10^-3 M). The ligand was tritiated RX 821002 (2-(2-methoxy-1,4-[6,7(n)-^3 H]benzodioxan-2-yl)-2-imidazoline) and the mixture was incubated at 0° C. for 75 minutes before the incubation was terminated by rapid filtration.
The filters were washed with ice-cold Tris-HCl buffer and dried. The filters were punched out into vials, scintillation fluid added and radioactivity determined by liquid scintillation counting. The percentage displacement of specific binding of the tritiated ligand was calculated for the single concentration (10^-6 M) of test compound. Displacement curves were then produced for those compounds which displaced ≥50% of specific binding of the tritiated ligand at 10^-6 M using a range of concentrations of the compound. The concentration which gave 50% inhibition of specific binding (IC50) was obtained from the curve. The inhibition coefficient Ki was then calculated using the formula [formula] in which [ligand] is the concentration of the tritiated ligand used and KD is the equilibrium dissociation constant for the ligand.

The values below come from patent publication US6114334A, “Piperazine derivatives as therapeutic agents” (Knoll Aktiengesellschaft, priority 1995, dated 2000).

Structures can show the parent of a compound that is named as a salt. Some results are limits rather than exact numbers.

Usually Ki stands for a dissociation constant, usually derived from enzyme kinetics or from competition with a known ligand.

D2 dopamine receptors, sequence (P61169 whole entry): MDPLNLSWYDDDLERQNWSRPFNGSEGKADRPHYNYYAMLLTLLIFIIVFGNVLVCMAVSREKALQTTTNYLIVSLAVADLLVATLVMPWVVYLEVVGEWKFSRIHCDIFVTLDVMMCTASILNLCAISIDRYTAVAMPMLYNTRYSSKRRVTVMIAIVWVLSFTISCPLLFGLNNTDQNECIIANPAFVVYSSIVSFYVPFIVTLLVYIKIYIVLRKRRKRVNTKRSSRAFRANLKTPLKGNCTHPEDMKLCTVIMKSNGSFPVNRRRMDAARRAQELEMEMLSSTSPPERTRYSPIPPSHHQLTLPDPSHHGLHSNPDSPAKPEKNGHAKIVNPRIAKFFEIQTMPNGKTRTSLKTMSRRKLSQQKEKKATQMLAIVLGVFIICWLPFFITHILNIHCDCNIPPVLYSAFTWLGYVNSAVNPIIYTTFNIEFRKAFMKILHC

For `Cn1c(N)c(CN2CCN(c3cccc4c3OCCO4)CC2)c(=O)n1-c1ccccc1` [Example 2, 3-amino-4-[4-(1,4-benzodioxan-5-yl)piperazin-1-ylmethyl]-2-methyl-1-phenyl-3-pyrazolin-5-one], the Ki in test [1] amounted to 401 nM; in test [2], 196 nM; in test [3], 26 nM; in test [4], 307 nM; in test [5] it was 29 nM.
As to `Cc1ccccc1N1CCN(Cc2c(N)n(C)n(-c3ccccc3)c2=O)CC1` [Example 3, 3-Amino-2-methyl-4-[4-(2-methylphenyl)piperazin-1-ylmethyl]-1-phenyl-3-pyrazolin-5-one], the “% displacement at 10^-6 M, α1” value in test [1] (10^-6 M, 7-methoxy-[3H]prazosin, 1 µM) came to 89%. In addition, the Ki in test [2] and in test [3] was greater than 500 nM in each case. Also, the inhibition at 1 µM in test [4] (10^-6 M, [3H]idazoxan, read-out: % displacement at 10^-6 M, α2D) was determined as 56%; in test [5], 98%.
`Cn1c(N)c(CN2CCN(c3cccc4ccccc34)CC2)c(=O)n1-c1ccccc1` [Example 4, 3-Amino-2-methyl-4-[4-(1-naphthyl)piperazin-1-ylmethyl]-1-phenyl-3-pyrazolin-5-one]: the Ki in test [1] is 186 nM; in test [2] it was 112 nM; in test [3], 39 nM; in test [4], greater than 500 nM. The inhibition at 1 µM in test [5] was found to be 82%.
In the case of `CCCn1c(N)c(CN2CCN(c3cccc4c3OCCO4)CC2)c(=O)n1-c1ccccc1` [Example 5, 3-Amino-4-[4-(1,4-benzodioxan-5-yl)piperazin-1-ylmethyl]-1-phenyl-2-propyl-3-pyrazolin-5-one], the Ki in test [1] was 41 nM; in test [2] it was 176 nM; in test [3], 16 nM; in test [4] it was 121 nM. In test [5], the inhibition at 1 µM was 73%.
The matching figures for `C=CCn1c(N)c(CN2CCN(c3cccc4c3OCCO4)CC2)c(=O)n1-c1ccccc1` [Example 6, 2-Allyl-3-amino-4-[4-(1,4-benzodioxan-5-yl)piperazin-1-ylmethyl]-1-phenyl-3-pyrazolin-5-one]: 45 nM, 139 nM, 22 nM, 111 nM and 86%.
With `Cn1c(N)c(CN2CCN(c3cccc4ccoc34)CC2)c(=O)n1-c1ccccc1` [Example 7, 3-Amino-4-[4-(7-benzo[b]furanyl)piperazin-1-ylmethyl]-2-methyl-1-phenyl-3-pyrazolin-5-one], the inhibition constant Ki stood at 19 nM in test [1], 177 nM in test [2], 24 nM in test [3] and 165 nM in test [4]. Besides, the inhibition at 1 µM in test [5] was determined as 91%.
The like results for `CC(C)Oc1ccccc1N1CCN(Cc2c(N)n(C)n(-c3ccccc3)c2=O)CC1` [Example 8, 3-Amino-4-[4-(2-isopropoxyphenyl)piperazin-1-ylmethyl]-2-methyl-1-phenyl-3-pyrazolin-5-one] were, in that order, 12 nM, 22 nM, 106 nM, 21 nM and 100%.
On to `Nc1c(CN2CCN(c3cccc4c3OCCO4)CC2)c(C2CC2)nn1-c1ccccc1` [Example 10, 5-amino-4-[4-(1,4-benzodioxan-5-yl)piperazin-1-ylmethyl]-3-cyclopropyl-1-phenylpyrazole], for which the Ki in test [1] stood at 31 nM; in test [2] it was 374 nM; in test [3], 25 nM; in test [4] it was 162 nM; in test [5], 2 nM.
As for `Nc1nn(-c2ccccc2)c(N)c1CN1CCN(c2cccc3c2OCCO3)CC1` [Example 11, 3,5-diamino-4-[4-(1,4-benzodioxan-5-yl)piperazin-1-ylmethyl]-1-phenylpyrazole], the inhibition constant (Ki) in test [1] was greater than 500 nM; in test [2], 309 nM; in test [3] it was 16 nM; in test [4], 60 nM. Besides, the inhibition at 1 µM in test [5] was 85%.
Consider `Cn1nc(C2CC2)c(CN2CCN(c3cccc4c3OCCO4)CC2)c1N` [Example 18, 5-Amino-4-[4-(1,4-benzodioxan-5-yl)piperazin-1-ylmethyl]-3-cyclopropyl-1-methylpyrazole 2.3 hydrochloride], for which the Ki in test [1] (hydrochloride) was 204 nM; in test [3], 27 nM; in test [4], 69 nM. In addition, the inhibition at 1 µM in test [5] stood at 98%.
